Laboratory results as given in patent publication EP0832891B1, “Dihydrobenzo (B) indeno (2,1-D) thiophene compounds, intermediates, processes, compositions, and methods” (ELI LILLY AND COMPANY, priority 1996, dated 1998).
Marks after values point to notes of the source that are not given here.

Experiments:
[1] = system: ovariectomized rats; assay: Serum cholesterol analysis in ovariectomized rats; type: in vivo, Sprague Dawley rats; details: for Serum Cholest. % Decrease: daily for 4 days, versus ovariectomized controls
Method: (§1) In the examples illustrating the methods, a postmenopausal model was used in which effects of different treatments upon circulating lipids were determined.
(§2) Seventy-five day old female Sprague Dawley rats (weight range of 200 to 225g) were obtained from Charles River Laboratories (Portage, MI). The animals were either bilaterally ovariectomized (OVX) or exposed to a Sham surgical procedure at Charles River Laboratories, and then shipped after one week. Upon arrival, they were housed in metal hanging cages in groups of 3 or 4 per cage and had ad libitum access to food (calcium content approximately 0.5%) and water for one week. Room temperature was maintained at 22.2° ± 1.7° C with a minimum relative humidity of 40%. The photoperiod in the room was 12 hours light and 12 hours dark.
Dosing Regimen Tissue Collection. After a one week acclimation period (therefore, two weeks post-OVX) daily dosing with test compound was initiated. 17α-ethynyl estradiol or the test compound were given orally, unless otherwise stated, as a suspension in 1% carboxymethylcellulose or dissolved in 20% cyclodextrin. Animals were dosed daily for 4 days. Following the dosing regimen, animals were weighed and anesthetized with a ketamine: xylazine (2:1, V:V) mixture and a blood sample was collected by cardiac puncture. The animals were then sacrificed by asphyxiation with CO2, the uterus was removed through a midline incision, and a wet uterine weight was determined.
Cholesterol Analysis. Blood samples were allowed to clot at room temperature for 2 hours, and serum was obtained following centrifugation for 10 minutes at 3000 rpm. Serum cholesterol was determined using a Boehringer Mannheim Diagnostics high performance cholesterol assay. Briefly the cholesterol was oxidized to cholest-4-en-3-one and hydrogen peroxide. The hydrogen peroxide was then reacted with phenol and 4-aminophenazone in the presence of peroxidase to produce a p-quinone imine dye, which was read spectrophotemetrically at 500 nm. Cholesterol concentration was then calculated against a standard curve.

[2] = system: MCF-7 breast adenocarcinoma cells; assay: MCF-7 Proliferation Assay (tritiated thymidine uptake); type: cell-based; details: Homo sapiens, MCF7; MCF-7 cells, 48 hours with drug, tritiated thymidine pulse 4 hours
Method: MCF-7 breast adenocarcinoma cells (ATCC HTB 22) were maintained in MEM (minimal essential medium, phenol red-free, Sigma, St. Louis, MO) supplimented with 10% fetal bovine serum (FBS) (V/V), L-glutamine (2 mM), sodium pyruvate (1 mM), HEPES {(N-[2-hydroxyethyl]piperazine-N'-[2-ethanesulfonic acid]10 mM}, non-essential amino acids and bovine insulin (1 µg/mL) (maintenance medium). Ten days prior to assay, MCF-7 cells were switched to maintenance medium supplemented with 10% dextran coated charcoal stripped fetal bovine serum (DCC-FBS) assay medium) in place of 10% FBS to deplete internal stores of steroids. MCF-7 cells were removed from maintenance flasks using cell dissociation medium (Ca++/Mg++ free HBSS (phenol red-free) supplemented with 10 mM HEPES and 2 mM EDTA). Cells were washed twice with assay medium and adjusted to 80,000 cells/mL. Approximately […] (8,000 cells) were added to flat-bottom microculture wells (Costar 3596) and incubated at 37° C in a 5% CO2 humidified incubator for 48 hours to allow for cell adherence and equilibration after transfer. Serial dilutions of drugs or DMSO as a diluent control were prepared in assay medium and […] to triplicate microcultures […]. […] Samples were counted by liquid scintillation using a Wallace BetaPlace β counter.

[3] = system: Eosinophil peroxidase; set-up: species or system Sprague Dawley rats; details: rat, in vivo
Description: as §2
Dosing Regimen Tissue Collection. After a one week acclimation period (therefore, two weeks post-OVX) daily dosing with test compound was initiated. […] The animals were then sacrificed by asphyxiation with CO2, the uterus was removed through a midline incision, and a wet uterine weight was determined.
Uterine Eosinophil Peroxidase (EPO) Assay. […] Upon addition of 0.01% hydrogen peroxide and 10 mM O-phenylenediamine (final concentrations) in Tris buffer, increase in absorbance was monitored for one minute at 450 nm. […] The maximal velocity of a 15 second interval was determined over the initial, linear portion of the reaction curve.

[4] = system: ovariectomized rats; set-up: species or system Sprague Dawley rats; details: rat, in vivo, po, 0.1 mg/kg/day
Method: as §1, §2
Dosing Regimen Tissue Collection. After a one week acclimation period (therefore, two weeks post-OVX) daily dosing with test compound was initiated. 17α-ethynyl estradiol or the test compound were given orally, unless otherwise stated, as a suspension in 1% carboxymethylcellulose or dissolved in 20% cyclodextrin. Animals were dosed daily for 4 days. […] The animals were then sacrificed by asphyxiation with CO2, the uterus was removed through a midline incision, and a wet uterine weight was determined.

| Structure (SMILES) | Serum Cholest. % Decrease ([1]; 0.1 mg/kg PO) | Serum Cholest. % Decrease ([1]; 1 mg/kg PO) | Serum Cholest. % Decrease ([1]; 10 mg/kg PO) | EC50 [2] [nM] | serum cholesterol (result in words) ([1]; compared to ovariectomized control animals, EE2 orally at 0.1 mg/kg/day) | Uterine Eosinophil (Vmax) [3] | eosinophil infiltration into the uterus (result in words) [3] | uterine weight (result in words) [4] |
| --- | --- | --- | --- | --- | --- | --- | --- | --- |
| Oc1ccc2c(c1)S[C@H]1c3ccccc3[C@@H](c3ccc(OCCN4CCCCC4)cc3)[C@@H]21 [Example 3] | 12.0% | 35.7* % | 65.0* % | 100 | – | – | – | – |
| C#C[C@]1(O)CC[C@H]2[C@@H]3CCc4cc(O)ccc4[C@H]3CC[C@@]21C [EE2, 17α-ethynyl estradiol, reference compound] | 95.2* % | – | – | – | caused a decrease in serum cholesterol | 357.3* | substantial, expected increase in eosinophil infiltration | substantially greater than the uterine weight of ovariectomized test animals |
